Measurements published in patent US20240002846A1, “COMPOSITIONS AND METHODS FOR THE DIAGNOSIS AND TREATMENT OF ITCH” (Duke University, priority 2020, published 2024).
“Also recorded” adds a separate entry of the source.

Experiments:
[1] = system: mice; test: Effect of inhibitor pretreatment on LPA-, LPC- or miR-146a-induced scratching behavior; format: in vivo, mouse
[2] = system: extracellular release of miR-146a; test: Extracellular release of miRs from cultured mouse keratinocytes (RT-qPCR); format: cell-based; conditions: mouse keratinocytes
Description: Primary mouse keratinocytes were cultured following previous protocol (Chen et al. J. Biol. Chem. 2016, 291, 10252-10262). The epidermis from the back skin of newborn WT or keratinocyte-Trpv4 cKO mice was separated from the dermis by floating the skin on 0.25% trypsin (Gibco, Gaithersburg, MD) for 14-18 h at 4° C. Basal keratinocytes were separated from the cornified sheets by filtration through a […] cell strainer. Keratinocytes were plated on collagen I-coated dishes or glass coverslips and grown in EME media (Gibco, Gaithersburg, MD) containing 8% chelex (Bio-rad, Hercules, CA)-treated FBS with the final Ca^2+ adjusted to 0.05 mM, bovine pituitary extract (50 μg/mL), epidermal growth factor (5 ng/mL), and lx antibiotics/antimycotics (Gibco, Gaithersburg, MD) in a humidified incubator with 5% CO2 at 37° C. for 5-7 days until use. To knockdown Trpv4 in isolated keratinocytes from newborn keratinocyte-Trpv4 cKO mice, cells were treated with 4-OH tamoxifen at 500 nM for 72 h.
Measurement of released vesicles and extracellular miR-146a from cultured keratinocytes or sera Medium for the cultured keratinocytes was replaced with serum-free medium 2 h before LPC stimulation. […] Finally, cell-free supernatants were further purified using a Vesicular Isolation kit (Invitrogen, Waltham, MA) according to the manufacturer's instructions, with final product resuspended in ice-cold PBS. Total RNA extraction was then carried out using a Total RNA Isolation kit (Invitrogen, Waltham, MA). Enrichment for small RNAs was carried out by sequential increase in ethanol concentration and passing through glass-fiber filters. RNase free water was used to elute small RNAs in the final elution step. For human PBC sera or sera from ANIT-treated mice, RNA was isolated using Qiagen miRNeasy Plasma/Serum kit. cDNA synthesis from extracted RNAs was performed according to manufacturer's instructions (qSTAR miRNA kit, Origene). For qPCR, the stem-loop oligonucleotides specific for the following miRs are as follows: miR-146a-5p (GAGAACTGAATTCCATGGG, SEQ ID NO: 4), miR-let-7b (GAGGTAGTAGGTTGTGTGG, SEQ ID NO: 5), miR-125b-1 (CCCT GAGACCCTAACTTG, SEQ ID NO: 6), miR-203 (GTGGTTC TTGACAGTTCAAC, SEQ ID NO: 7), and miR-16-5p (AGCAGCAC GTAAATATTGGC, SEQ ID NO: 8). Primers were purchased from Integrated DNA Technologies company (Coralville, IA). qPCR reactions for each sample were run in triplicates, including no-template controls. MiR-16-5p was selected as a control due to the relative constancy of its expression in various cultured cell lines (Schwarzenbach et al. Clin. Chem. 2015, 61, 1333-1342). qPCR for this miR was performed in tandem with target miRs to determine the optimal normalization procedure. To investigate the effects of the specific TRPV4 inhibitors GSK205 or HC067047 and the specific MEK inhibitor U0126 on LPC-induced extracellular release of miR-146a, cells were incubated with the inhibitors for 15 min before stimulation. Control cells received the same volume of vehicle.
Vesicular release from cultured keratinocytes was quantified by detecting acetylcholinesterase (AChE) activity in the extracellular release fluid. (Gupta et al. Am. J. Physiol. Heart Circ. Physiol. 2007, 292, H3052-3056; Malik et al. Methods Mol. Biol. 2016, 1448, 237-248). CBQCA Protein Quantitation Kit (Molecular Probes, Eugene, OR) was used to assess the total protein amounts of each sample. Quantitation was carried out according to kit instructions (Fluorocet, Systems Biosciences, Palo Alto, CA). Briefly, vesicles were lysed to release esterase enzyme whose activity is measured using a florescence dye, excitation at 544 nm and emission at 590 nm. Fluostar Optima (BMG Labtech, Cary, NC) microplate reader was used to measure esterase activity. 500 ng protein equivalent of input was used per well. […]

Row | Compound | effect on LPC-induced itch (TRPV4 inhibitors) ([1]; WT mice, i.p. pretreatment 20 mg/kg) | effect on LPA (18:1)-induced itch ([1]; WT mice, i.p. pretreatment 20 mg/kg, LPA 500 μg i.d.) | effect on LPC-induced itch (TRPV4 inhibitors) ([1]; WT mice, i.p. pretreatment 20 mg/kg, listed as HC067) | effect of TRPV4 inhibitors on LPC-induced release of miR-146a ([2]; inhibitor 10 μM) | effect on LPC-induced itch (MEK inhibitor) ([1]; i.d. pretreatment 20 μg/50 μL) | effect of MEK inhibitor on LPC-induced release of miR-146a ([2]; 10 μM)
1 | Cc1c(C(=O)Nc2cccc(C(F)(F)F)c2)cc(-c2ccccc2)n1CCCN1CCOCC1 [HC067047] | a reduction | no significant reduction in scratching; also recorded: not significantly altered | significantly reduced | completely eliminated | – | –
2 | N#CC(=C(/N)Sc1ccccc1N)/C(C#N)=C(\N)Sc1ccccc1N [U0126] | – | – | – | – | significant reduction; also recorded: significantly attenuated | eliminated; also recorded: abolished
